ChEMBL document CHEMBL2157909, “Design, synthesis, spectral and biological evaluation of novel 1-allyl substituted 2,6-diphenylpiperidin-4-ones and its derivatives of oximes/oxime ethers” (2012)
≈ marks a conversion by molar mass, not a printed value.

Tests used:
Rhizopus = assay: Antifungal activity against Rhizopus sp. ATCC 2842 after 72 to 96 hrs by two fold serial dilution method; assay type: functional
Fusarium oxysporum = assay: Antifungal activity against Fusarium oxysporum ATCC 48112 after 72 to 96 hrs by two fold serial dilution method; assay type: functional
Escherichia coli = assay: Antibacterial activity against Escherichia coli ATCC 26032 after 24 hrs by two fold serial dilution method; assay type: functional; settings: ATCC 26032, 24 h
Staphylococcus aureus = assay: Antibacterial activity against Staphylococcus aureus ATCC 25930 after 24 hrs by two fold serial dilution method; assay type: functional; settings: ATCC 25930, 24 h
Aspergillus flavus = assay: Antifungal activity against Aspergillus flavus ATCC 525 after 72 to 96 hrs by two fold serial dilution method; assay type: functional
Bacillus subtilis = assay: Antibacterial activity against Bacillus subtilis ATCC 530 after 24 hrs by two fold serial dilution method; assay type: functional; settings: ATCC 530, 24 h
Penicillium chrysogenum = assay: Antifungal activity against Penicillium chrysogenum ATCC 28089 after 72 to 96 hrs by two fold serial dilution method; assay type: functional
Aspergillus niger = assay: Antifungal activity against Aspergillus niger ATCC 635 after 72 to 96 hrs by two fold serial dilution method; assay type: functional
Salmonella typhi = assay: Antibacterial activity against Salmonella typhi ATCC 25021 after 24 hrs by two fold serial dilution method; assay type: functional, Salmonella enterica subsp. enterica serovar Typhi; settings: Salmonella enterica, ATCC 25021, 24 h
Pseudomonas = assay: Antibacterial activity against Pseudomonas ATCC 27853 after 24 hrs by two fold serial dilution method; assay type: functional; settings: ATCC 27853, 24 h

Structure (SMILES) | MIC (Rhizopus) | MIC (Fusarium oxysporum) | MIC (Escherichia coli) | MIC (Staphylococcus aureus) | MIC (Aspergillus flavus) | MIC (Bacillus subtilis) | MIC (Penicillium chrysogenum) | MIC (Aspergillus niger) | MIC (Salmonella typhi) | MIC (Pseudomonas)
C=CCN1[C@H](c2ccccc2)CC(=O)[C@@H](C)[C@@H]1c1ccccc1 (relative stereo) | 200 µg/mL (≈ 655 µM) | 100 µg/mL (≈ 327 µM) | 100 µg/mL (≈ 327 µM) | 100 µg/mL (≈ 327 µM) | 50 µg/mL (≈ 164 µM) | 200 µg/mL (≈ 655 µM) | 50 µg/mL (≈ 164 µM) | 50 µg/mL (≈ 164 µM) | 50 µg/mL (≈ 164 µM) | 200 µg/mL (≈ 655 µM)
C=CCN1[C@@H](c2ccccc2)C(C)(C)/C(=N/OCc2ccccc2)C[C@H]1c1ccccc1 (relative stereo) | 50 µg/mL (≈ 118 µM) | 12.5 µg/mL (≈ 29.4 µM) | 50 µg/mL (≈ 118 µM) | 50 µg/mL (≈ 118 µM) | 12.5 µg/mL (≈ 29.4 µM) | 6.25 µg/mL (≈ 14.7 µM) | 6.25 µg/mL (≈ 14.7 µM) | 25 µg/mL (≈ 58.9 µM) | 12.5 µg/mL (≈ 29.4 µM) | 25 µg/mL (≈ 58.9 µM)
C=CCN1[C@H](c2ccccc2)C/C(=N\O)[C@@H](C)[C@@H]1c1ccccc1 (relative stereo) | 25 µg/mL (≈ 78 µM) | 100 µg/mL (≈ 312 µM) | 50 µg/mL (≈ 156 µM) | 100 µg/mL (≈ 312 µM) | 200 µg/mL (≈ 624 µM) | 50 µg/mL (≈ 156 µM) | 100 µg/mL (≈ 312 µM) | 50 µg/mL (≈ 156 µM) | 100 µg/mL (≈ 312 µM) | 200 µg/mL (≈ 624 µM)
C=CCN1[C@H](c2ccccc2)C/C(=N\OCc2ccccc2)[C@@H](C)[C@@H]1c1ccccc1 (relative stereo) | 25 µg/mL (≈ 60.9 µM) | 200 µg/mL (≈ 487 µM) | 25 µg/mL (≈ 60.9 µM) | 50 µg/mL (≈ 122 µM) | 50 µg/mL (≈ 122 µM) | 6.25 µg/mL (≈ 15.2 µM) | 100 µg/mL (≈ 244 µM) | 50 µg/mL (≈ 122 µM) | 12.5 µg/mL (≈ 30.4 µM) | 50 µg/mL (≈ 122 µM)
C=CCN1[C@H](c2ccccc2)[C@@H](C)/C(=N/OCc2ccccc2)[C@@H](C)[C@@H]1c1ccccc1 (relative stereo) | 100 µg/mL (≈ 236 µM) | 50 µg/mL (≈ 118 µM) | 100 µg/mL (≈ 236 µM) | 12.5 µg/mL (≈ 29.4 µM) | 100 µg/mL (≈ 236 µM) | 100 µg/mL (≈ 236 µM) | 50 µg/mL (≈ 118 µM) | 200 µg/mL (≈ 471 µM) | 50 µg/mL (≈ 118 µM) | 25 µg/mL (≈ 58.9 µM)
C=CCN1[C@H](c2ccc(OC)cc2)CC(=O)[C@@H](C)[C@@H]1c1ccc(OC)cc1 (relative stereo) | 25 µg/mL (≈ 68.4 µM) | 25 µg/mL (≈ 68.4 µM) | 50 µg/mL (≈ 137 µM) | 100 µg/mL (≈ 274 µM) | 50 µg/mL (≈ 137 µM) | 6.25 µg/mL (≈ 17.1 µM) | 50 µg/mL (≈ 137 µM) | 12.5 µg/mL (≈ 34.2 µM) | 25 µg/mL (≈ 68.4 µM) | 100 µg/mL (≈ 274 µM)
C=CCN1[C@H](c2ccccc2)C/C(=N\OCc2ccccc2)[C@@H](CC)[C@@H]1c1ccccc1 (relative stereo) | 12.5 µg/mL (≈ 29.4 µM) | 25 µg/mL (≈ 58.9 µM) | 6.25 µg/mL (≈ 14.7 µM) | 200 µg/mL (≈ 471 µM) | 100 µg/mL (≈ 236 µM) | 50 µg/mL (≈ 118 µM) | 12.5 µg/mL (≈ 29.4 µM) | 50 µg/mL (≈ 118 µM) | 25 µg/mL (≈ 58.9 µM) | 100 µg/mL (≈ 236 µM)
C=CCN1[C@H](c2ccc(OC)cc2)C/C(=N\OCc2ccccc2)[C@@H](C)[C@@H]1c1ccc(OC)cc1 (relative stereo) | 25 µg/mL (≈ 53.1 µM) | 6.25 µg/mL (≈ 13.3 µM) | 100 µg/mL (≈ 212 µM) | 12.5 µg/mL (≈ 26.6 µM) | 100 µg/mL (≈ 212 µM) | 50 µg/mL (≈ 106 µM) | 50 µg/mL (≈ 106 µM) | 12.5 µg/mL (≈ 26.6 µM) | 25 µg/mL (≈ 53.1 µM) | 6.25 µg/mL (≈ 13.3 µM)
C[C@@H]1[C@H](O)[C@@H](C)/C=C/C=C/C=C/C=C/C=C/C=C/C=C/[C@H](O[C@@H]2O[C@H](C)[C@@H](O)[C@H](N)[C@@H]2O)C[C@@H]2O[C@](O)(C[C@@H](O)C[C@@H](O)[C@H](O)CC[C@@H](O)C[C@@H](O)CC(=O)O[C@H]1C)C[C@H](O)[C@H]2C(=O)O [AMPHOTERICIN B] | 25 µg/mL (≈ 27.1 µM) | 50 µg/mL (≈ 54.1 µM) |  |  | 50 µg/mL (≈ 54.1 µM) |  | 12.5 µg/mL (≈ 13.5 µM) | 50 µg/mL (≈ 54.1 µM) |  | 
C=CCN1[C@H](c2ccccc2)[C@@H](C)C(=O)[C@@H](C)[C@@H]1c1ccccc1 | 200 µg/mL (≈ 626 µM) | 50 µg/mL (≈ 157 µM) | 100 µg/mL (≈ 313 µM) | 12.5 µg/mL (≈ 39.1 µM) | 100 µg/mL (≈ 313 µM) | 25 µg/mL (≈ 78.3 µM) | 50 µg/mL (≈ 157 µM) | 100 µg/mL (≈ 313 µM) | 100 µg/mL (≈ 313 µM) | 50 µg/mL (≈ 157 µM)
C=CCN1[C@@H](c2ccccc2)C/C(=N/O)C[C@H]1c1ccccc1 (relative stereo) | 25 µg/mL (≈ 81.6 µM) | 50 µg/mL (≈ 163 µM) | 25 µg/mL (≈ 81.6 µM) | 50 µg/mL (≈ 163 µM) | 25 µg/mL (≈ 81.6 µM) | 6.25 µg/mL (≈ 20.4 µM) | 50 µg/mL (≈ 163 µM) | 12.5 µg/mL (≈ 40.8 µM) | 100 µg/mL (≈ 326 µM) | 50 µg/mL (≈ 163 µM)
C=CCN1[C@@H](c2ccccc2)C(C)(C)/C(=N/O)C[C@H]1c1ccccc1 (relative stereo) | 25 µg/mL (≈ 74.7 µM) | 50 µg/mL (≈ 149 µM) | 100 µg/mL (≈ 299 µM) | 12.5 µg/mL (≈ 37.4 µM) | 25 µg/mL (≈ 74.7 µM) | 25 µg/mL (≈ 74.7 µM) | 12.5 µg/mL (≈ 37.4 µM) | 25 µg/mL (≈ 74.7 µM) | 100 µg/mL (≈ 299 µM) | 50 µg/mL (≈ 149 µM)
C=CCN1[C@H](c2ccc(C)cc2)C/C(=N\OCc2ccccc2)[C@@H](C)[C@@H]1c1ccc(C)cc1 (relative stereo) | 50 µg/mL (≈ 114 µM) | 100 µg/mL (≈ 228 µM) | 200 µg/mL (≈ 456 µM) | 100 µg/mL (≈ 228 µM) | 100 µg/mL (≈ 228 µM) | 50 µg/mL (≈ 114 µM) | 6.25 µg/mL (≈ 14.2 µM) | 12.5 µg/mL (≈ 28.5 µM) | 50 µg/mL (≈ 114 µM) | 100 µg/mL (≈ 228 µM)
